According to paper PMC4286194 (Biochemical Journal, 2015):

Key:
CRTC3 = CRTC3 nuclear translocation (immunofluorescence); assay type: cell-based, mouse; conditions: bone-marrow-derived macrophages, 1 h
Method: Macrophages were seeded on glass coverslips and treated with inhibitors for 1 h. Cells were then fixed for 10 min in 4% paraformaldehyde, permeabilized for 5 min using 0.1% Triton X-100 in PBS and blocked for 45 min using 3% BSA in PBS. Cells were stained with anti-CRTC3 and anti-tubulin followed by Alexa Fluor® […] anti-rabbit and Alexa Fluor® 488-conjugated anti-mouse antibodies respectively. Antibodies were diluted in blocking buffer and incubated with the cells for 45 min. Cells were mounted in Prolong Gold Antifade Reagent containing DAPI (Invitrogen) and visualized under a Zeiss LSM 700 confocal microscope using an Alpha Plan-Apochromat ×100/numerical aperture (NA) 1.46 objective (optical section thickness 0.7 μm). Fields of cells were selected at random using only the DAPI stained channel. Optical sections were taken through the centre of the nuclei, 10 fields collected per coverslip and images were quantified using the Volocity programme (PerkinElmer). Nuclei were identified using the DAPI stained channel, merged objects were separated and the mean intensity of the […] in the nuclear and cytoplasmic regions was measured. For each field, the mean of the nuclear to cytoplasmic intensity ratio was calculated, which was subsequently used to determine the overall mean nuclear to cytoplasmic intensity ratio for each treatment.

DYRK3 = target: T1, DYRK3 (Homo sapiens, UniProt O43781); assay: Kinase profiling; assay type: biochemical
T1 sequence (O43781 1-588): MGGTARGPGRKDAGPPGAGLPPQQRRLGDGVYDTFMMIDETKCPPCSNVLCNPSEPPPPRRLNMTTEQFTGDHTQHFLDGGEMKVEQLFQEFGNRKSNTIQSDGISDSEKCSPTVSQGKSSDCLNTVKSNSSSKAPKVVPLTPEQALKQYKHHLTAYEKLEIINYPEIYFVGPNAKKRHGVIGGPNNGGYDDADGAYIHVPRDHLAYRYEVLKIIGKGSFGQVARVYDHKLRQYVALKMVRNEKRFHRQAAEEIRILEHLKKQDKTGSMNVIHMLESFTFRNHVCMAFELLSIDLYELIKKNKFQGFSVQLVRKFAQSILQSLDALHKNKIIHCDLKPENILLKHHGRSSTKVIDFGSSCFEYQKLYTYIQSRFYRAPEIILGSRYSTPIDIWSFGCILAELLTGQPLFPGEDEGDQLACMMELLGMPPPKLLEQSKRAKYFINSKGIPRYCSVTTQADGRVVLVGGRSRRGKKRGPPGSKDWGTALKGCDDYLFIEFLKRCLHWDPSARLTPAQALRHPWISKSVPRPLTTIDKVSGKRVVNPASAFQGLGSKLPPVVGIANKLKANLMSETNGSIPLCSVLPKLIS

EIF2AK3 = target: T2, EIF2AK3 (Homo sapiens, UniProt Q9NZJ5); assay: Kinase profiling; assay type: biochemical
T2 sequence (Q9NZJ5 30-1116): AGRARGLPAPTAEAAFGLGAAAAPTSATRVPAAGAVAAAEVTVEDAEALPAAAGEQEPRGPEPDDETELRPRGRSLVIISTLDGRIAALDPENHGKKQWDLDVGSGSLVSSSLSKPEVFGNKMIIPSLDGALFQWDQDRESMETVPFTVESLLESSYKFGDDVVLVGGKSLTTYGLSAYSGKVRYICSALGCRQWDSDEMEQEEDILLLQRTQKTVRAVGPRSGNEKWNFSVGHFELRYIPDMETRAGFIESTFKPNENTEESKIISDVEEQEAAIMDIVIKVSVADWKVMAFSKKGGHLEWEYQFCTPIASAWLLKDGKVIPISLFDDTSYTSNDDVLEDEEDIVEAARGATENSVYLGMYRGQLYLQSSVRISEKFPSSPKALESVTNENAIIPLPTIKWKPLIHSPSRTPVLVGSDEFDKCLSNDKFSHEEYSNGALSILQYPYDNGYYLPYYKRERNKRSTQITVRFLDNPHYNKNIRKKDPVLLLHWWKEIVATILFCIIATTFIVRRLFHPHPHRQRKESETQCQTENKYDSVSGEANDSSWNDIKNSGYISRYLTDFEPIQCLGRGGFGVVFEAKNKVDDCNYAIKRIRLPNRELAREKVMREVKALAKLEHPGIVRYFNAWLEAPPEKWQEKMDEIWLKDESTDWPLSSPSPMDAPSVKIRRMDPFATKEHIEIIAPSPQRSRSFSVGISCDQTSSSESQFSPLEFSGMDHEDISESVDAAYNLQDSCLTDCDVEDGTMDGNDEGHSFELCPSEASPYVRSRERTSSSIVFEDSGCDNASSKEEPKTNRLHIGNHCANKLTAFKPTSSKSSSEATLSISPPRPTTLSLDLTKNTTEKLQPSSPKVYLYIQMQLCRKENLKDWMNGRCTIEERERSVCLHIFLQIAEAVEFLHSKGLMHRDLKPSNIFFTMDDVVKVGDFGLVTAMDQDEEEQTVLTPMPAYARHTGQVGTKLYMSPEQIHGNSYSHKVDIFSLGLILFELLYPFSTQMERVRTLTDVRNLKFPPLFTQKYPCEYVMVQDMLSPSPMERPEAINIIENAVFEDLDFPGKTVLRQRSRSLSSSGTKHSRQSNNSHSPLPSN

[1] = test system: Bone-marrow-derived macrophages; assay: CREB-dependent gene transcription (qPCR); assay type: cell-based, mouse; conditions: 3 μM bosutinib or 0.3 μM dasatinib; LPS or Pam3CSK4
Method: mRNA was extracted from cells using the MicroElute Total RNA kit following the manufacturers’ instructions (Omega Bio-Tek). cDNA was generated from 0.5 μg of total RNA using the iScript cDNA synthesis kit and quantified by quantitative real-time PCR (qPCR) using the SsoFast EvaGreen Supermix on a CFX384 real-time system (Bio-Rad Laboratories). The relative expression of each gene was calculated from CT values using the Pfaffl method and was normalized against the mRNA levels of housekeeping genes including 18S RNA and GAPDH. Results are reported relative to untreated control cells, which were set to 1.

SGK1 = target: T3, SGK1 (Homo sapiens, UniProt O00141); assay: Kinase profiling; assay type: biochemical
T3 sequence (O00141 1-431): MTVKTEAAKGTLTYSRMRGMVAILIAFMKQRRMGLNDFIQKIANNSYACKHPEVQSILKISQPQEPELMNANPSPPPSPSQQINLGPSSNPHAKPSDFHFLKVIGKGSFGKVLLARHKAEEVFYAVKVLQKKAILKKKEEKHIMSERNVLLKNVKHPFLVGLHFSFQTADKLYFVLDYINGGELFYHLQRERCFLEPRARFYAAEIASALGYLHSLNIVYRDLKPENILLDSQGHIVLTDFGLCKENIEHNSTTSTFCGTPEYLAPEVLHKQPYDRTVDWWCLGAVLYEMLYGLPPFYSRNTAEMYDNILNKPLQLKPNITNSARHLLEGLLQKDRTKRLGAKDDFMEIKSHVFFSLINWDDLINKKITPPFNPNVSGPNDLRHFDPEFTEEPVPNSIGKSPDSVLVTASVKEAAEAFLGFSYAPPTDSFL

Row | SMILES | Localization of CRTC3 (CRTC3) | remaining activity at 0.1 µM (DYRK3) | remaining activity at 1 µM (DYRK3) | remaining activity at 0.1 µM (EIF2AK3) | remaining activity at 1 µM (EIF2AK3) | Transcription of CREB-dependent genes IL-10, Nurr77 and c-FOS [1] | remaining activity at 0.1 µM (SGK1) | remaining activity at 1 µM (SGK1)
1 | Cc1nc(Nc2ncc(C(=O)Nc3c(C)cccc3Cl)s2)cc(N2CCN(CCO)CC2)n1 [Dasatinib] | translocation to the nucleus | 98 ± 7% | 104 ± 9% | 106 ± 6% | 113 ± 2% | elevated the transcription | 87 ± 11% | 96 ± 7%
2 | COc1cc(Nc2c(C#N)cnc3cc(OCCCN4CCN(C)CC4)c(OC)cc23)c(Cl)cc1Cl [Bosutinib, bosutinib] | translocation to the nucleus | 85 ± 11% | 90 ± 16% | 107 ± 5% | 103% | elevated the transcription | 98 ± 20% | 100 ± 2%
